Literature values as cited in US20250134829A1, “LOW-DOSE, STABLE-RELEASE TRANSDERMAL PREPARATION AND PATCH, AND METHOD FOR THEIR PRODUCTION” (PÉCSI TUDOMÁNYEGYETEM, priority 2022, published 2025).

Key:
[1] = test system: capsaicin-sensitive sensory nerve endings; details: high dose (6-8%) of capsaicin locally
[2] = test system: patients suffering from low back pain; details: topical nonivamide treatment

Compound	duration of disabling of the capsaicin-sensitive sensory nerve endings (desensitization) [1]	plasma level of the neuropeptide somatostatin [2]
COc1cc(CNC(=O)CCCC/C=C/C(C)C)ccc1O [capsaicin]	2-3 months	–
CCCCCCCCC(=O)NCc1ccc(O)c(OC)c1 [nonivamide]	–	threefold increase
